Experimental data taken from paper PMC10760875, “Synthesis of alnustone-like diarylpentanoids via a 4 + 1 strategy and assessment of their potential anticancer activity” (Turkish Journal of Chemistry, 2023).
Like-named read-outs stand apart in the source and are kept apart here. One block for each compound: values may come before it.

Key:
[1] = system: MCF-7 cells (breast cancer); test: MTT cytotoxicity assay, MCF-7; format: cell-based, human; settings: for IC50: MTT, 48 h, read-out: IC50 against MCF-7; for SI, MCF-7 cells: SI = IC50 normal cells (HPAEpiC)/IC50 MCF-7
Description: (§1) GBM (U87-MG), breast cancer (MCF-7), prostate carcinoma (PC-3), and lung epithelium (HPAEpiC) cell lines were used to assess the cytotoxic action potential of compounds 5a–5l. The cells were grown in a single layer in flasks in appropriate medium containing 10% fetal bovine serum (FBS), 1% penicillin/streptomycin, and 1% L-glutamine at 37 °C and 5% CO2 to maintain the pH balance. Cells that had reached 70%–80% confluence were used in the experiments.
(§2) The 3-(4,5-dimethylthiazol-2-yl)-2,5-diphenyltetrazolium bromide (MTT) method is a widely used colorimetric method for the quantitative determination of cell viability. It is based on the reduction of the tetrazolium ring of the yellow dye MTT by living cells. As a result of the reduction, the tetrazolium ring breaks down to form a dark blue-violet formazan compound. Cell viability is then determined spectrophotometrically. The viability of untreated cells is assumed to be 100% and the viability of treated cells is determined as a percentage (%) according to those cells.
(§3) To each 96-well plate, 2 × 10^4 cells were seeded and treated with 6 different concentrations (3.125, 6.25, 12.5, 25, 50, and 100 mg/L) of the 12 tested compounds, and then the plates were incubated in a CO2 oven at 37 °C for 48 h. At the end of the incubation, 10 μL of the MTT mixture was added to each well using a pipette, which was then gently mixed for 1 min on a circular mixer. The cells were incubated in a CO2 oven at 37 °C for 3–4 h. The formazan that formed as a result of the incubation was seen as dark crystals at the bottoms of the wells. The culture medium was carefully aspirated from each well without dispersing the cell layer, and then 100 μL of dimethyl sulfoxide (DMSO) was added to each well and gently stirred on an orbital stirrer to dissolve the formazan crystals. Each sample was read at a wavelength of 570 nm in a spectrophotometer and absorbance values were obtained. A wavelength of 630 nm was used as the reference wavelength.
(§4) Percent viability and cytotoxicity values for each dose administered were calculated according to the following formulas:
(§5) • % Viability = (absorbance of the sample/absorbance of the control) × 100 • % Cytotoxicity = [1 – (absorbance of the sample/absorbance of the control)] × 100
(§6) The IC50 dose, as the concentration of inhibitor that caused a 50% decrease in cell viability, was calculated using Excel regression analysis.
(§7) Human GBM (U87-MG), breast cancer (MCF-7), prostate cancer (PC-3), and pulmonary alveolar epithelial cells (HPAEpiC) cell lines from the American Type Culture Collection (ATCC) were used for the cytotoxicity testing of compounds 5a–5l. The cells were grown as a single layer in appropriate medium containing 10% FBS, 1% penicillin/streptomycin, and 1% L-glutamine at 37 °C and 5% CO2 atmosphere.
(§8) The cytotoxicity analyses of all of the compounds were investigated by determining cell viability based on the colorimetric MTT assay, which was conducted according to the manufacturer’s guide. First, […] were seeded in a 96-well plate and then incubated at 37 °C in a 5% CO2 environment for 24 h. The medium was aspirated the following day, and […] of each concentration of the 12 tested compounds (3.125, 6.25, 12.5, 25, 50, and 100 mg/L) were separately added to each well. The plates were then incubated for 48 h at 37 °C with 5% CO2. Next, 10 μL of MTT solution was added to each well and the plate was incubated for 4 h. The culture medium was aspirated from the wells without dispersing the cell layer and then 100 μL of DMSO was added to each well and stirred on an orbital stirrer to dissolve the formazan crystals. Each sample was read at a wavelength of 570 nm in a spectrophotometer and absorbance values were obtained. A wavelength of 630 nm was used as the reference. Cell viability was expressed as a percentage compared to the untreated cells. All experiments were performed in triplicate.

[2] = system: U87-MG cells (human glioblastoma); test: MTT cytotoxicity assay, U87-MG; format: cell-based; settings: for IC50: Homo sapiens, U-87 MG, MTT, 48 h, read-out: IC50 against U87-MG; for SI, U87-MG cells: SI = IC50 normal cells (HPAEpiC)/IC50 U87-MG
Description: as §1, §2, §3, §4, §5, §6, §7, §8

[3] = system: HPAEpiC cells (pulmonary alveolar epithelial cells); test: MTT cytotoxicity assay, healthy HPAEpiC; format: cell-based; settings: Homo sapiens, Epithelial cell, 48 h, read-out: IC50 against HPAEpiC (healthy cells)
Description: as §1, §2, §3, §4, §5, §6, §7, §8

[4] = system: PC-3 cells (prostate cancer); test: MTT cytotoxicity assay, PC-3; format: cell-based, human; settings: for IC50: MTT, 48 h, read-out: IC50 against PC-3; for SI, PC-3 cells: SI = IC50 normal cells (HPAEpiC)/IC50 PC-3
Description: as §1, §2, §3, §4, §5, §6, §7, §8

MCF-7 cells = test: Hoechst 33258 nuclear staining, MCF-7; format: cell-based, human; settings: IC50 concentration, 48 h
Description: (§9) Cell morphological characteristics were examined via the fluorescent Hoechst 33258 staining approach. […] The nuclei in the untreated group were stained a less brilliant blue and the color was uniform. After 48 h of treatment at the IC50 concentrations of compounds 5a and 5i, the blue emission light in the apoptotic cells was considerably brighter than in the control cells. Many compound-treated cells also had condensed chromatin, and some had the shape of apoptotic bodies, which is one of the basic features of apoptotic cells (Figures 5 and 6). In line with these findings, it was previously reported that the diarylpentanoid BP-M345 exerted potential as an anticancer drug, showing its antiproliferative activity by preventing mitosis through microtubule disruption and inducing cancer cell death. Likewise, diarylpentanoid derivatives have led to intrinsic apoptosis in cancer cells by upregulating proapoptotic proteins such as Bad and Bax and downregulating prosurvival proteins such as Bcl-2 and Bcl-xL [33]. […]
(§10) Hoechst 33258 staining was used to assess significant morphological changes in the nuclear chromatin of the cells. […] Thereafter, the cells were observed using a Leica DMIRB fluorescence microscope (Leica Microsystems, Wetzlar, Germany). […]

U87-MG cells = test: Hoechst 33258 nuclear staining, U87-MG; format: cell-based, human; settings: IC50 concentration, 48 h
Description: as §9, §10

SMILES: COc1cccc2c1C(=O)c1c(O)c3c(c(O)c1C2=O)C[C@@](O)(C(=O)CO)C[C@@H]3O[C@H]1C[C@H](N)[C@H](O)[C@H](C)O1 [DOX control (+), doxorubicin, reference compound]
IC50 ([1]; Homo sapiens, MCF7, 48 h): 14.7 µM | SI, MCF-7 cells [1]: 4.38 | IC50 [2]: 8.95 µM | SI, U87-MG cells [2]: 7.20 | IC50 [3]: 64.4 µM | IC50 ([4]; Homo sapiens, PC-3, 48 h): 6.76 µM | SI, PC-3 cells [4]: 9.53

SMILES: O=C(/C=C/c1ccccc1)CCc1ccccc1 [Compound 5a, (E)-1,5-diphenylpent-1-en-3-one]
SI, MCF-7 cells [1]: 7.45 | Nuclear morphology by Hoechst 33258 staining, MCF-7 (MCF-7 cells): apoptotic cells with fragmented nuclei | IC50 [2]: 107 µM | SI, U87-MG cells [2]: 0.79 | IC50 [3]: 84.8 µM | Nuclear morphology by Hoechst 33258 staining, U87-MG (U87-MG cells): apoptotic cells with fragmented nuclei | IC50 ([4]; Homo sapiens, PC-3, 48 h): 50.1 µM | SI, PC-3 cells [4]: 1.69

SMILES: O=C(/C=C/c1ccc(O)c(O)c1)CCc1ccccc1 [Compound 5f, (E)-1-(3,4-dihydroxyphenyl)-5-phenylpent-1-en-3-one]
IC50 ([1]; Homo sapiens, MCF7, 48 h): 544 µM | SI, MCF-7 cells [1]: 0.08 | IC50 [2]: 33.4 µM | SI, U87-MG cells [2]: 1.29 | IC50 [3]: 43.1 µM | IC50 ([4]; Homo sapiens, PC-3, 48 h): 97.5 µM | SI, PC-3 cells [4]: 0.44

SMILES: O=C(/C=C/c1ccc(O)cc1)CCc1ccccc1 [Compound 5b, (E)-1-(4-hydroxyphenyl)-5-phenylpent-1-en-3-one]
SI, MCF-7 cells [1]: 0.58 | melting point: 136 to 137 °C | IC50 [2]: 70.9 µM | SI, U87-MG cells [2]: 0.08 | IC50 [3]: 5.51 µM | IC50 ([4]; Homo sapiens, PC-3, 48 h): < 30 µM | IC50 [4]: 22 µM | SI, PC-3 cells [4]: 0.25

SMILES: O=C(/C=C/c1ccccc1)CCc1ccc(O)cc1 [Compound 5g, (E)-5-(4-hydroxyphenyl)-1-phenylpent-1-en-3-one]
IC50 ([1]; Homo sapiens, MCF7, 48 h): < 30 µM | IC50 [1]: 16.2 µM | SI, MCF-7 cells [1]: 1.31 | melting point: 96 to 97 °C | IC50 [2]: 128 µM | SI, U87-MG cells [2]: 0.17 | IC50 [3]: 21.1 µM | IC50 ([4]; Homo sapiens, PC-3, 48 h): 291 µM | SI, PC-3 cells [4]: 0.07

SMILES: COc1ccc(/C=C/C(=O)CCc2ccc(O)cc2)cc1 [Compound 5i, (E)-5-(4-hydroxyphenyl)-1-(4-methoxyphenyl)pent-1-en-3-one]
SI, MCF-7 cells [1]: 2.52 | Nuclear morphology by Hoechst 33258 staining, MCF-7 (MCF-7 cells): apoptotic cells with fragmented nuclei | IC50 [2]: 233 µM | SI, U87-MG cells [2]: 0.06 | IC50 [3]: 14.9 µM | Nuclear morphology by Hoechst 33258 staining, U87-MG (U87-MG cells): apoptotic cells with fragmented nuclei | SI, PC-3 cells [4]: 1.53

Now from value to compound, other results behind:

melting point: 94 to 95 °C
SMILES: COc1ccc(/C=C/C(=O)CCc2ccccc2)cc1O [Compound 5e, (E)-1-(3-hydroxy-4-methoxyphenyl)-5-phenylpent-1-en-3-one]
IC50 ([1]; Homo sapiens, MCF7, 48 h): < 30 µM | IC50 [1]: 21.8 µM | SI, MCF-7 cells [1]: 1.21 | IC50 [2]: 133 µM | SI, U87-MG cells [2]: 0.20 | IC50 [3]: 26.4 µM | IC50 ([4]; Homo sapiens, PC-3, 48 h): 95.8 µM | SI, PC-3 cells [4]: 0.28

melting point: 202 to 203 °C
SMILES: O=C(/C=C/c1ccc(O)c(O)c1)CCc1ccc(O)cc1 [Compound 5l, (E)-1-(3,4-dihydroxyphenyl)-5-(4-hydroxyphenyl)pent-1-en-3-one]
IC50 ([1]; Homo sapiens, MCF7, 48 h): 317 µM | SI, MCF-7 cells [1]: 1.25 | IC50 [2]: 287 µM | SI, U87-MG cells [2]: 1.38 | IC50 [3]: 396 µM | IC50 ([4]; Homo sapiens, PC-3, 48 h): 185 µM | SI, PC-3 cells [4]: 2.14

melting point: 89 to 90 °C
SMILES: COc1cc(/C=C/C(=O)CCc2ccccc2)ccc1O [Compound 5d, (E)-1-(4-hydroxy-3-methoxyphenyl)-5-phenylpent-1-en-3-one]
IC50 ([1]; Homo sapiens, MCF7, 48 h): < 30 µM | IC50 [1]: 27.8 µM | SI, MCF-7 cells [1]: 0.52 | IC50 [2]: 31.9 µM | SI, U87-MG cells [2]: 0.45 | IC50 [3]: 14.4 µM | IC50 ([4]; Homo sapiens, PC-3, 48 h): < 30 µM | IC50 [4]: 20.9 µM | SI, PC-3 cells [4]: 0.69

melting point: 95 to 96 °C
SMILES: COc1ccc(/C=C/C(=O)CCc2ccccc2)cc1 [Compound 5c, (E)-1-(4-methoxyphenyl)-5-phenylpent-1-en-3-one]
IC50 ([1]; Homo sapiens, MCF7, 48 h): 50.2 µM | SI, MCF-7 cells [1]: 1.84 | IC50 [2]: 213 µM | SI, U87-MG cells [2]: 0.42 | IC50 [3]: 92.3 µM | IC50 ([4]; Homo sapiens, PC-3, 48 h): 439 µM | SI, PC-3 cells [4]: 0.21

melting point: 146 to 147 °C
SMILES: O=C(/C=C/c1ccc(O)cc1)CCc1ccc(O)cc1 [Compound 5h, (E) 1,5-bis(4-hydroxyphenyl)pent-1-en-3-one]
IC50 ([1]; Homo sapiens, MCF7, 48 h): < 30 µM | IC50 [1]: 26.7 µM | SI, MCF-7 cells [1]: 1.92 | IC50 [2]: 358 µM | SI, U87-MG cells [2]: 0.14 | IC50 [3]: 51.4 µM | IC50 ([4]; Homo sapiens, PC-3, 48 h): 437 µM | SI, PC-3 cells [4]: 0.12

melting point: 131 to 132 °C
SMILES: COc1cc(/C=C/C(=O)CCc2ccc(O)cc2)ccc1O [Compound 5j, (E)-1-(4-hydroxy-3-methoxyphenyl)-5-(4-hydroxyphenyl)pent-1-en-3-one]
IC50 ([1]; Homo sapiens, MCF7, 48 h): 35 µM | SI, MCF-7 cells [1]: 2.67 | IC50 [2]: 75.7 µM | SI, U87-MG cells [2]: 1.23 | IC50 [3]: 93.4 µM | IC50 ([4]; Homo sapiens, PC-3, 48 h): 32.2 µM | SI, PC-3 cells [4]: 2.90

melting point: 130 to 131 °C
SMILES: COc1ccc(/C=C/C(=O)CCc2ccc(O)cc2)cc1O [Compound 5k, (E)-1-(3-hydroxy-4-methoxyphenyl)-5-(4-hydroxyphenyl)pent-1-en-3-one]
IC50 ([1]; Homo sapiens, MCF7, 48 h): 203 µM | SI, MCF-7 cells [1]: 0.34 | IC50 [2]: 52.6 µM | SI, U87-MG cells [2]: 1.32 | IC50 [3]: 69.3 µM | IC50 ([4]; Homo sapiens, PC-3, 48 h): 45.1 µM | SI, PC-3 cells [4]: 1.54
